Measured values reported in US20250230193A1, “CYCLIC COMPOUND HAVING SELECTIVE KRAS INHIBITORY EFFECT ON HRAS AND NRAS” (CHUGAI SEIYAKU KABUSHIKI KAISHA, priority 2022, published 2025).
Where a SMILES comes first, the peptide text is derived from it. Bridges are numbered along the chain shown (N, C = ends). [ ]: non-standard residue; d: D form. The star is where a group is joined. hPhe(3,5-F2-4-CF3) = N[C@@H](CCc1cc(F)c(C(F)(F)F)c(F)c1)C(=O)O; NPrPhe(4-CF3) = CCCN[C@@H](Cc1ccc(C(F)(F)F)cc1)C(=O)O; NMeGly(cPent) = CN[C@H](C(=O)O)C1CCCC1; NMeD = CN[C@@H](CC(=O)O)C(=O)O; NMeL = CN[C@@H](CC(C)C)C(=O)O; αMeS = C[C@](N)(CO)C(=O)O; Morpholide = C1CN(*)CCO1; Aze = O=C(O)[C@@H]1CCN1; Sar = CNCC(=O)O

Tests used:
[1] = molecular target: GDP-bound NRAS wild-type protein (Homo sapiens, UniProt P01111); assay: Binding to NRAS by surface plasmon resonance (SPR), Single Cycle Kinetics; conditions: SPR; for NRAS/KRAS (ratio of KD value for GDP-bound NRAS wild-type protein to KD value for KRAS): KD ratio class
GDP-bound NRAS wild-type protein, sequence (P01111 whole entry): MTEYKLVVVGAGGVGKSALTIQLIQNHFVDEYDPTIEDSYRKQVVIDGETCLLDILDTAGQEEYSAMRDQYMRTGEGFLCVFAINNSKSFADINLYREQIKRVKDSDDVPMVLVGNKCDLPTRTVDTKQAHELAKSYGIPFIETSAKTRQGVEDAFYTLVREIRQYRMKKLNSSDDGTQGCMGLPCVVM

[2] = molecular target: GDP-bound HRAS wild-type protein (Homo sapiens, UniProt P01112); assay: Binding to HRAS by surface plasmon resonance (SPR), Single Cycle Kinetics; conditions: SPR; for HRAS/KRAS (ratio of KD value for GDP-bound HRAS wild-type protein to KD value for KRAS): KD ratio class
GDP-bound HRAS wild-type protein, sequence (P01112 whole entry): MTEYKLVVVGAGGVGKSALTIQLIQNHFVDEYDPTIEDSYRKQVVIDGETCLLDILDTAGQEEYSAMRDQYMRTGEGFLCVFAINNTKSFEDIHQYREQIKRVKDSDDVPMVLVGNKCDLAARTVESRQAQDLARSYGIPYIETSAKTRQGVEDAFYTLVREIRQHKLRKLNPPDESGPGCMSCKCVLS

[3] = KD ratio, GDP-bound NRAS wild-type vs GDP-bound KRAS wild-type
[4] = KD ratio, GDP-bound HRAS wild-type vs GDP-bound KRAS wild-type
[5] = GDP-bound NRAS wild-type vs GDP-bound KRAS wild-type
[6] = GDP-bound HRAS wild-type vs GDP-bound KRAS wild-type

`CCC[C@H]1C(=O)N[C@@H]([C@@H](C)CC)C(=O)N(C)CC(=O)N(C)[C@H]2C/C=C\CCN(C2=O)[C@@H](Cc2ccc(C(F)(F)F)cc2)C(=O)N(C)CC(=O)N[C@@H](CCc2cc(F)c(C(F)(F)F)c(F)c2)C(=O)N2C[C@H](OCC)C[C@H]2C(=O)NC2(CCC2)C(=O)N(C)[C@@H](C2CCCC2)C(=O)N(C)[C@H](C(=O)N2CC3CCC(C2)O3)CC(=O)N1C` [PP1315] was tested, and the “NRAS/KRAS (ratio of KD value for GDP-bound NRAS wild-type protein to KD value for KRAS)” value [1] was “AA (a compound having 20 or more is denoted as AA)” and the “HRAS/KRAS (ratio of KD value for GDP-bound HRAS wild-type protein to KD value for KRAS)” value [2] was “A (a compound having 10 or more and less than 20 is denoted as A)”.

For `CC[C@H](C)[C@@H]1NC(=O)[C@H](CC)N(C)C(=O)C[C@@H](C(=O)N(C)C)N(C)C(=O)[C@H](C2CCCC2)N(C)C(=O)C2(CCC2)NC(=O)[C@H](COC)N(C)C(=O)[C@H](CCc2cc(F)c(C(F)(F)F)c(F)c2)NC(=O)CN(C)C(=O)[C@H](Cc2ccc(C(F)(F)F)cc2)N2CC/C=C\C[C@@H](C2=O)N(C)C(=O)CN(C)C1=O` [PP1145], the “NRAS/KRAS (ratio of KD value with respect to NRAS to KD value with respect to KRAS)” value [1, 3] was “A (a compound having 10 or more and less than 20 is denoted as A)” and the “HRAS/KRAS (ratio of KD value with respect to HRAS to KD value with respect to KRAS)” value [2, 4] was “B (a compound having 3 or more and less than 10 is denoted as B)”.

For `CCO[C@@H]1C[C@H]2C(=O)NC3(CCC3)C(=O)N(C)[C@@H](C3CCCC3)C(=O)N(C)[C@H](C(=O)N(C)CCOC)CC(=O)N(C)[C@@H](CC)C(=O)N[C@@H]([C@@H](C)CC)C(=O)N(C)CC(=O)N(C)[C@H]3C/C=C\CCN(C3=O)[C@@H](Cc3ccc(C(F)(F)F)cc3)C(=O)N(C)CC(=O)N[C@@H](CCc3cc(F)c(C(F)(F)F)c(F)c3)C(=O)N2C1` [PP1316], the “NRAS/KRAS (ratio of KD value for GDP-bound NRAS wild-type protein to KD value for KRAS)” value [1] was “A (a compound having 10 or more and less than 20 is denoted as A)” and the “HRAS/KRAS (ratio of KD value for GDP-bound HRAS wild-type protein to KD value for KRAS)” value [2] was “A (a compound having 10 or more and less than 20 is denoted as A)”.

In the case of `CCCN(C)C(=O)[C@@H]1CC(=O)N(C)[C@@H](CC(F)F)C(=O)N[C@@H]([C@@H](C)CC)C(=O)N(C)CC(=O)N(C)[C@H]2C/C=C\CCN(C2=O)[C@@H](Cc2ccc(C(F)(F)F)cc2)C(=O)N(C)CC(=O)N[C@@H](CCc2ccc(C(F)(F)F)c(OC)c2)C(=O)N2C[C@@H](C)C[C@H]2C(=O)NC2(CC(C)(C)C2)C(=O)N(C)[C@@H](C2CCCC2)C(=O)N1C` [PP1989], the “NRAS/KRAS (ratio of KD value for NRAS to KD value for KRAS)” value [1, 3] is reported as “A (a compound having 10 or more and less than 20 is denoted as A)” and the “HRAS/KRAS (ratio of KD value for HRAS to KD value for KRAS)” value [2, 4] is reported as “A (a compound having 10 or more and less than 20 is denoted as A)”.

In the case of `C#CCN1CC(=O)N(C)[C@H]2C/C=C\CCN(C2=O)[C@@H](Cc2ccc(C(F)(F)F)cc2)C(=O)N(C)CC(=O)N[C@@H](CCc2cc(F)c(C(F)(F)F)c(F)c2)C(=O)N2C[C@H](OCC)C[C@H]2C(=O)NC2(CC(C)(C)C2)C(=O)N(C)[C@@H](C2CCCC2)C(=O)N(C)[C@H](C(=O)N(C)C)CC(=O)N(C)[C@@H](CC)C(=O)N[C@@H]([C@@H](C)CC)C1=O` [PP2087], the “NRAS/KRAS (ratio of KD value with respect to NRAS to KD value with respect to KRAS)” value [1, 5] is reported as “A (a compound having 10 or more and less than 20 is denoted as A)” and the “HRAS/KRAS (ratio of KD value with respect to HRAS to KD value with respect to KRAS)” value [2, 6] is reported as “A (a compound having 10 or more and less than 20 is denoted as A)”.

With `CCCN1C(=O)[C@@H]2CCN2C(=O)CN(C)C(=O)[C@H]([C@@H](C)CC)NC(=O)[C@H](CC(C)C)N(C)C(=O)C[C@@H](C(=O)N2CCOCC2)N(C)C(=O)[C@H](C2CCCC2)N(C)C(=O)[C@](C)(COC)NC(=O)[C@@H]2CCCN2C(=O)[C@H](CCc2cc(F)c(C(F)(F)F)c(F)c2)NC(=O)CN(C)C(=O)[C@@H]1Cc1ccc(C(F)(F)F)cc1` [PP0798] ([NMeL]I[Sar][Aze][NPrPhe(4-CF3)][Sar][hPhe(3,5-F2-4-CF3)]P[αMeS](Me)[NMeGly(cPent)][NMeD]-Morpholide; lactam N-11) the “NRAS/KRAS (ratio of KD value with respect to GDP-bound NRAS wild-type protein to KD value with respect to KRAS)” value ([1]; KD ratio NRAS/KRAS) was “C (A compound having a KD ratio of 0.1 or more and less than 3 is denoted as C)” and the “HRAS/KRAS (ratio of KD value with respect to GDP-bound HRAS wild-type protein to KD value with respect to KRAS)” value ([2]; KD ratio HRAS/KRAS) was “B (a compound having 3 or more and less than 10 is denoted as B)”.

`CCC[C@H]1C(=O)N[C@@H]([C@@H](C)CC)C(=O)N(C)CC(=O)N(C)[C@H]2C/C=C\CCN(C2=O)[C@@H](Cc2ccc(C)cc2)C(=O)N(C)CC(=O)N[C@@H](CCc2ccc(Cl)c(Cl)c2)C(=O)N2C[C@H](OCC)C[C@H]2C(=O)NC2(CC(C)(C)C2)C(=O)N(C)[C@@H](C(CC)CC)C(=O)N(C)[C@H](C(=O)N(C)C)CC(=O)N1C` [PP2184] was tested, and the “NRAS/KRAS (ratio of KD value with respect to NRAS to KD value with respect to KRAS)” value [1, 5] was “AA (a compound having 20 or more is denoted as AA)” and the “HRAS/KRAS (ratio of KD value with respect to HRAS to KD value with respect to KRAS)” value [2, 6] was “A (a compound having 10 or more and less than 20 is denoted as A)”.
